From patent US20240350456A1, “COMPOSITIONS AND METHODS FOR DIAGNOSING AND TREATING INFLAMMATORY CONDITIONS” (RUTGERS, THE STATE UNIVERSITY OF NEW JERSEY, priority 2023, published 2024)

Tests used:
[1] = tested on: ZO-1 (Tjp1) and Ocln; experiment: Intestinal organoids treated with LPS and metabolites: tight junction (TJ) expression, RT-qPCR and immunostaining; assay type: cell-based, mouse; details: for gene expression of Ocln: ex vivo, in the presence of the barrier disruptor; for TJ expression at the protein and mRNA levels: in the presence of LPS (1 μg/mL), 48 hr
Experimental: Intestinal organoids were isolated as previously described (Das et al., 2015; Pearce et al., 2018). Briefly, crypts were isolated from small intestine of conventional house C57BL/6 male mice (Taconic Laboratories, Hudson, NY) by shaking in isolation buffer (2 mM EDTA in PBS), then, crypts were harvested, processed, and suspended in crypt culture medium (CCM), which consisted of advanced DMEM/F12 (Life Technologies, Carlsbad, CA) supplemented with serum-free B27 (1:50; Life Technologies), N2 (1:100; Life Technologies), N-acetylcysteine (1 mM; Sigma-Aldrich, St. Louis, MO), recombinant murine epithelial growth factor (EGF, 50 ng/ml; Peprotech, Rocky Hill, NJ), Noggin (100 ng/ml; Peprotech), R-Spondin (500 ng/ml; Peprotech), Glutamax-I supplement (1:100; Life Technologies), penicillin/streptomycin (500 μg/ml; Life Technologies), and HEPES ([…]; Life Technologies). Crypts were resuspended in 70% Matrigel (density ˜450 crypts per dome, 2 domes per well in 24-well plate) and allowed to solidify at 37° C. for 20 min. CCM (1.5 mL) was then added to each well. Cultures were incubated in a humidified incubator at 37° C., and CCM was changed daily. Intestinal organoid treatment with LPS and metabolites
We had 2 series of metabolite-treated organoid experiments, i.e., 1) organoid from conventional C57BL6 mice and 2) Ocln KO and littermate WT control as a gift from Prof. Jerrold Turner (Harvard University). […] Seeding is designated as day 0. On day 3 of culture, the existing media in the wells were completely removed before adding treatments. LPS (1 μg/mL) with or without metabolites, i.e., IPA (0.1 mM) (Li et al., 2021), IAM (200 μM) (Vyhlidalova et al., 2020), MNA (12 ng/ml) (Liu et al., 2015), CARN (20 mM) (Boldyrev et al., 2013) or ASA (1 μM) (Erez et al., 2011) were each added in CCM at known physiological concentrations, incubated for 48 hours, thereafter, organoid was harvested for RNA extraction, and paraformaldehyde fixation for immunostaining.
Total RNA was extracted from the intestinal organoids using a commercially available kit (RNeasy Microkit; Qiagen, MD, Cat. #74004) following manufacturer's instructions. mRNA samples were converted to cDNA using Bio-Rad's iScript Reverse Transcription Supermix for RT-qPCR (Bio-Rad Laboratories, Hercules, CA, Cat. #1708840). cDNA was then used for RT-qPCR (Mx3000P. Stratagene, La Jolla, CA) to analyze several genes using Maxima SYBR Green qPCR Master Mix (Thermo Fisher Scientific, Waltham, MA) and primers (Integrated DNA Technologies, Coralville, IA). Thermal profile for three-step cycling was 10 min at 95° C. for initial denaturation; then 40 cycles of 15 sec at 95° C. for denaturation, 30 sec at 65° C. for annealing, and 30 sec at 75° C. for extension. Primers used are as follows: β-actin (Actb), forward 5′-[…]-3′ (SEQ ID NO: 5), reverse 5′-[…]-3′ (SEQ ID NO: 6); ZO-1 (Tjp1), forward 5′-[…]-3′ (SEQ ID NO: 7), reverse 5′-[…]-3′ (SEQ ID NO: 8), Ocln, forward 5′-[…]-3′ (SEQ ID NO: 9), reverse 5′-[…]-3′ (SEQ ID NO: 10); Lyz1, forward 5′-ATGGCTACCGTGGTGTCAAG-3′ (SEQ ID NO: 11), reverse 5′-CGGTCTCCACGGTTGTAGTT-3′ (SEQ ID NO: 12); Tff3, forward 5′-TAATGCTGTTGGTGGTCCTG-3′ (SEQ ID NO: 13), reverse 5′-CAGCCACGGTTGTTACACTG-3′ (SEQ ID NO: 14). All samples were normalized to β actin expression. Gene expression levels are depicted as fold change relative to the control group.
Immunocytochemistry followed earlier work (Pearce et al., 2018). Briefly, organoids were extracted from Matrigel by using cell recovery solution (Corning, Cat. No. 354253), processed then fixed in 4% paraformaldehyde for 15 min and dehydrated with 70% ethanol and kept in 4° C. until embedded in paraffin. On the day of embedding, organoids were gently spun down to a pellet (250 g for 5 min), then the supernatant was removed, the pellet resuspended in agarose and embedded in paraffin. […]

[2] = tested on: human-derived Caco-2 cells; experiment: In vitro transwell screening in Caco-2 cells, barrier disrupted by Clostridium difficile toxin (TEER and FITC-dextran permeability); assay type: cell-based
Text: FIG. 20A-20B. In vitro screening of metabolites effective against leaky gut. FIG. 20A, Diagram of the in vitro transwell method used to evaluate efficacy of metabolites in protecting the leaky gut in human-derived Caco-2 cells. The luminal compartment represents the food side, and the basolateral the blood side. FIG. 20B, Transepithelial electrical resistance (TEER) measurements, and FITC-dextran measurements, evaluate the leakiness of the tight junction that regulates the pore (top) and leak (bottom) pathways of the gut. Ions (red), small molecules (blue), FITC-dextran (orange).
FIG. 21A-21D. Efficacy of tryptophan and vitamin B3 metabolites in protecting the gut barrier in vitro. FIG. 21A, TEER measurements of metabolites placed on luminal side of transwells for 72 hours. After 48 hours, the barrier was disrupted by the toxin of clostrium difficile (Cdiff). FIG. 21B, Integrated results of area under the curve using data from FIG. 21A. FIG. 21C, FITC-dextran permeability analysis of metabolites applied luminally. FIG. 21D, FITC-dextran permeability analysis of metabolites applied basolaterally.
FIG. 22A-22B. Efficacy of microbiota-derived indole metabolites in protecting the gut barrier. FIG. 22A, Integrated results of TEER measurements of metabolites placed on luminal side of transwells for 72 hours. After 48 hours, the barrier was disrupted by the toxin of clostrium difficile (Cdiff) FIG. 22B, FITC-dextran permeability analysis of metabolites from FIG. 22A applied luminally.
To perform in vitro screening of the metabolites effective against leaky gut, an in vitro transwell method was used. (FIG. 20A) The efficacy of these metabolites in protecting the leaky gut was analyzed in human-derived Caco-2 cells. Transepithelial electrical resistance (TEER) measurements evaluates the leakiness of the tight junction that regulates the pore (FIG. 20B, top) and leak (FIG. 20B, bottom) pathways of the gut. The higher the TEER, the less permeable the junction is to the movement of ions and small molecules. FITC-dextran is a large polysaccharide with a fluorescent moiety, typically used as a probe to assess the leakiness of the tight junction to large molecules like dextran. The faster the movement of FITC-dextran from lumen to blood, the greater the permeability.
(FIG. 21A) There was no effect of these metabolites on TEER when applied by themselves. After 48 h, the barrier was disrupted by the toxin of a common “bad” bacteria Clostridium difficile (Cdiff). TEER plummeted with this toxin (TOX, red line) compared to control (Veh, blue line). […] (FIG. 21A)

| SMILES | gene expression of Ocln [1] | TJ expression at the protein and mRNA levels [1] | TEER, indole metabolites (FIG. 22A) ([2]; applied to the lumen, TOX) | integrated TEER (area under the curve, FIG. 21B) ([2]; luminal, C. difficile toxin) | TEER after C. difficile toxin (FIG. 21A) ([2]; metabolites on luminal side, toxin after 48 h) |
| --- | --- | --- | --- | --- | --- |
| NC(=O)Cc1c[nH]c2ccccc12 [Indole-3-acetamide, indole-3-acetamide] | increased gene expression of Ocln | increased TJ expression | clearly protective against TOX-induced decreases in TEER | – | – |
| C[n+]1cccc(C(N)=O)c1 [Methylnicotinamide, 1-methynicotinamide] | increased gene expression of Ocln | increased TJ expression | – | protected the cells from barrier disruption by TOX | best at preventing the toxin-induced disruption of the barrier |
